Active and inactive are the calls of the source. Cut-off read from the data, not from the text of the source, for most assays here: actives have a measured Kd and inactives only a lower limit.
Tests used:
[1] = target: T1, Cytochrome c1, heme protein, mitochondrial (Homo sapiens, UniProt P08574)
T1 sequence (P08574 whole entry): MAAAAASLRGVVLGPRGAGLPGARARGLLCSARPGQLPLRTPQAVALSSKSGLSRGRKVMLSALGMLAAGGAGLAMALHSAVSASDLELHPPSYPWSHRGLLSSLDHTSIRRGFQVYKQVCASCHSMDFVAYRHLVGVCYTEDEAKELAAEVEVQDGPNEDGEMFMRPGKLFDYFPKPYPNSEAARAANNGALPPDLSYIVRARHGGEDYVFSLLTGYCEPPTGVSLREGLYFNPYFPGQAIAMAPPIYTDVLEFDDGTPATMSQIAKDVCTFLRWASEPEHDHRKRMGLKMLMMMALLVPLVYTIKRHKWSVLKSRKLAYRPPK

[2] = target: T2, Mitogen-activated protein kinase kinase kinase kinase 2 (Homo sapiens, UniProt Q12851)
T2 sequence (Q12851 whole entry): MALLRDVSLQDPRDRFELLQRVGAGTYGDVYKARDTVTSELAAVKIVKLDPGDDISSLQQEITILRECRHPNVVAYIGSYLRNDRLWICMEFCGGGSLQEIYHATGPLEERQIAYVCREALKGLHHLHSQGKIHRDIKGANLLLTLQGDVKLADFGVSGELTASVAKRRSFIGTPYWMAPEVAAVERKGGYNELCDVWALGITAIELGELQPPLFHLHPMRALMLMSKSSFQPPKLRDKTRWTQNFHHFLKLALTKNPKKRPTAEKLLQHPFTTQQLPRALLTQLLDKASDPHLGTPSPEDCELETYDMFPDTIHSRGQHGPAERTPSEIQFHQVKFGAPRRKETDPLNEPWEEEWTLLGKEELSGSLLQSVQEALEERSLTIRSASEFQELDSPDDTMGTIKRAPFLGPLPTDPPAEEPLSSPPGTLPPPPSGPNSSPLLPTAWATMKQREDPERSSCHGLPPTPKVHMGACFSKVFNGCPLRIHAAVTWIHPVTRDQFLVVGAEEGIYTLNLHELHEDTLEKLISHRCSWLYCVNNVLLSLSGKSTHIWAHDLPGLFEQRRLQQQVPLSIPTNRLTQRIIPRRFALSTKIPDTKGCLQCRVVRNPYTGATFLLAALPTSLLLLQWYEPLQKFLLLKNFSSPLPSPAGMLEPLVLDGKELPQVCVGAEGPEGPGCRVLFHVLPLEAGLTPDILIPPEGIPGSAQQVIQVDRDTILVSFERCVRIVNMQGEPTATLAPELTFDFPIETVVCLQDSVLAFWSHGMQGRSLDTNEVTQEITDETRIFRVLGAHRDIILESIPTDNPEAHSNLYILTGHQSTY

[3] = target: T3, Bifunctional phosphoribosylaminoimidazole carboxylase/phosphoribosylaminoimidazole succinocarboxamide synthetase (Homo sapiens, UniProt P22234)
T3 sequence (P22234 whole entry): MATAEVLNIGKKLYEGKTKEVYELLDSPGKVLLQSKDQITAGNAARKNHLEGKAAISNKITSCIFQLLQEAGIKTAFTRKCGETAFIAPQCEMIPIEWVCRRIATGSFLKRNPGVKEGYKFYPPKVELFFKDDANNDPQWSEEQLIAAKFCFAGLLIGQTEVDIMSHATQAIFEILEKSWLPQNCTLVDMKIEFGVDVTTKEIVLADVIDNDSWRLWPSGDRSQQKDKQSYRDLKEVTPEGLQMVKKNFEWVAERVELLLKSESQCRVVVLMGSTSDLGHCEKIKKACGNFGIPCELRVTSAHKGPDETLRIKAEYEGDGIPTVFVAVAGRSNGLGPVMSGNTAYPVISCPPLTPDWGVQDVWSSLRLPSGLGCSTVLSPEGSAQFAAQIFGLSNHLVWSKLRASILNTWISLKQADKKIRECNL

[4] = target: T4, Serine/threonine-protein kinase STK11 (Homo sapiens, UniProt Q15831)
T4 sequence (Q15831 whole entry): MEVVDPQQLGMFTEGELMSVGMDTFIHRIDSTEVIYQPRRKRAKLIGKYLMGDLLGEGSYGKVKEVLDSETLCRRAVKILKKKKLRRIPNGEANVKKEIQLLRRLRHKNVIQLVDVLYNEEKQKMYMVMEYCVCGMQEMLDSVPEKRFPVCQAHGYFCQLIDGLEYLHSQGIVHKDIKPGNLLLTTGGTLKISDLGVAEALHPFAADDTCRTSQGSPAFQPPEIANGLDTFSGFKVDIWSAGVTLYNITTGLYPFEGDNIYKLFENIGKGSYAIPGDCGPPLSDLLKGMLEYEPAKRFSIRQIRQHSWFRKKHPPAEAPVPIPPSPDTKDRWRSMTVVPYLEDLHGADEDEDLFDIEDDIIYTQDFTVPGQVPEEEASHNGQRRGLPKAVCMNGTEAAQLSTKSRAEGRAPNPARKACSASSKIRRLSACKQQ

[5] = target: T5, EKC/KEOPS complex subunit TP53RK (Homo sapiens, UniProt Q96S44)
T5 sequence (Q96S44 whole entry): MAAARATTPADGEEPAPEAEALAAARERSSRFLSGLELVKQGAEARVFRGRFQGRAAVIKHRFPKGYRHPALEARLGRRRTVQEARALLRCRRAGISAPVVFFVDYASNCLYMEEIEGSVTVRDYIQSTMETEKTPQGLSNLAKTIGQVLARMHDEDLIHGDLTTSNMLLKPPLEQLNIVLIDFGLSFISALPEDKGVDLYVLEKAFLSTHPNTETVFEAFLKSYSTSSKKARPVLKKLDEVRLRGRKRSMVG

[6] = target: T6, Serine/threonine-protein kinase ULK3 (Homo sapiens, UniProt Q6PHR2)
T6 sequence (Q6PHR2 whole entry): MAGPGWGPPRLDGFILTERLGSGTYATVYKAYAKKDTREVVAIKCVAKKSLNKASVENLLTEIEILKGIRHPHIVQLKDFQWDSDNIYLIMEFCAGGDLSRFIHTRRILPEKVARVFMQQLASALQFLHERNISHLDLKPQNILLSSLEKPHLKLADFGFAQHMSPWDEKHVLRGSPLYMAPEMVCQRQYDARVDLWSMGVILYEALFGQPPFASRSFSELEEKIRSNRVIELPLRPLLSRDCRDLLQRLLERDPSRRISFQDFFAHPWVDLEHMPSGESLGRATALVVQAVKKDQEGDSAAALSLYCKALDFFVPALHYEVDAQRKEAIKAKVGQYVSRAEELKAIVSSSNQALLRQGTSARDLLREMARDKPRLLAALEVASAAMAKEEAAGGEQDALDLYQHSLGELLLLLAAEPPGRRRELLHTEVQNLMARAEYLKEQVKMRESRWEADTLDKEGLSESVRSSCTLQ

[7] = target: Glycogen synthase kinase-3 alpha (Homo sapiens, UniProt P49840)
Chain of Glycogen synthase kinase-3 alpha (P49840 whole entry): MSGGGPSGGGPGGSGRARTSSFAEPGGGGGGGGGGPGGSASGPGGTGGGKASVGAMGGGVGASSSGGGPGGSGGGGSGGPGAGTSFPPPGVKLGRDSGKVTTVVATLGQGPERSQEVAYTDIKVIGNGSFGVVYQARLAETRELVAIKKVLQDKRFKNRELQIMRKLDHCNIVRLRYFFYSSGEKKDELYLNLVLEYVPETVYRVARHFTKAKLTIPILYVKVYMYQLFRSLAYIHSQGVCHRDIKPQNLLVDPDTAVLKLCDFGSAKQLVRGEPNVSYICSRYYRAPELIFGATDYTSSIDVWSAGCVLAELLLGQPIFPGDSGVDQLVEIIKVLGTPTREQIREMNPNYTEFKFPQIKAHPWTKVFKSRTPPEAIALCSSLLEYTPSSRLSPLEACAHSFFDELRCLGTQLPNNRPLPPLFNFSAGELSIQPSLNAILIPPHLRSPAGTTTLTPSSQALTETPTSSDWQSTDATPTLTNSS

Insulin receptor = Insulin receptor (Homo sapiens, UniProt P06213)
Chain of Insulin receptor (P06213 28-758 limits assumed): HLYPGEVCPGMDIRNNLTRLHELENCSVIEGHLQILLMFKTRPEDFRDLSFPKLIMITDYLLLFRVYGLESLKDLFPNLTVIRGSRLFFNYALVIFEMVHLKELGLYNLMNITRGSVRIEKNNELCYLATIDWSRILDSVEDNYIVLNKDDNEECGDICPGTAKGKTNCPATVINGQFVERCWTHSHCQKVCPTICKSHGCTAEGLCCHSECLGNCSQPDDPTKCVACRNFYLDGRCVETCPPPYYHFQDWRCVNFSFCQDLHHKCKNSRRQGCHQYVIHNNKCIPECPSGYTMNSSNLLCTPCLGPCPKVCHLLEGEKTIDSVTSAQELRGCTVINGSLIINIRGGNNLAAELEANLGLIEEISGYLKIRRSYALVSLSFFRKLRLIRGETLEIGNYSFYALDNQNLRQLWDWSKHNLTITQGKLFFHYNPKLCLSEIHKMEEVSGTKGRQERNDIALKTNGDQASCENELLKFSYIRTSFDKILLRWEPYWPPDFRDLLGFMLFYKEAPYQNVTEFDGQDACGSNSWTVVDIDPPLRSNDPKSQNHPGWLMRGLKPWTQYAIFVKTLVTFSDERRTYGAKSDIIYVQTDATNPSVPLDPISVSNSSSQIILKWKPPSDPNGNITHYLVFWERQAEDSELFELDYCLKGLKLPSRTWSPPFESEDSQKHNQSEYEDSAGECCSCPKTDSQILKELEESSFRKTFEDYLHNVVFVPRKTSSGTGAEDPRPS
Chain of Insulin receptor (P06213 763-1382 limits assumed): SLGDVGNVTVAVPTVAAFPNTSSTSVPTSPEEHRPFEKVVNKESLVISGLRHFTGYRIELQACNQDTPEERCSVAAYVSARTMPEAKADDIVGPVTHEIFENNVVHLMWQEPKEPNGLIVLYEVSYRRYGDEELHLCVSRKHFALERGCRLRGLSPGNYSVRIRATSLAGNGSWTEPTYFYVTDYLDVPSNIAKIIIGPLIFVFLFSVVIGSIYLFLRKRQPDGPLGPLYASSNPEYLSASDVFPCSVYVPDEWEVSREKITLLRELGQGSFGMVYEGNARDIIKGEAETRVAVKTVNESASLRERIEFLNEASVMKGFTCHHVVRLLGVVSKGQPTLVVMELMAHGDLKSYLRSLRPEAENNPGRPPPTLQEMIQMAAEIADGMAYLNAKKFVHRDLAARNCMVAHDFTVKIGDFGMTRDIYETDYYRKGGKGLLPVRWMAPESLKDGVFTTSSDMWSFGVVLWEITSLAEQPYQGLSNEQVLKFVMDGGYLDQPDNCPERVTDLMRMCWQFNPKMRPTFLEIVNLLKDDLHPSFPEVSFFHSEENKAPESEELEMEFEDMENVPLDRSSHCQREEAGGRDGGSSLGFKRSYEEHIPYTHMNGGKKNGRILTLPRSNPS

[8] = target: Rho-associated protein kinase 2 (Homo sapiens, UniProt O75116)
Chain of Rho-associated protein kinase 2 (O75116 whole entry): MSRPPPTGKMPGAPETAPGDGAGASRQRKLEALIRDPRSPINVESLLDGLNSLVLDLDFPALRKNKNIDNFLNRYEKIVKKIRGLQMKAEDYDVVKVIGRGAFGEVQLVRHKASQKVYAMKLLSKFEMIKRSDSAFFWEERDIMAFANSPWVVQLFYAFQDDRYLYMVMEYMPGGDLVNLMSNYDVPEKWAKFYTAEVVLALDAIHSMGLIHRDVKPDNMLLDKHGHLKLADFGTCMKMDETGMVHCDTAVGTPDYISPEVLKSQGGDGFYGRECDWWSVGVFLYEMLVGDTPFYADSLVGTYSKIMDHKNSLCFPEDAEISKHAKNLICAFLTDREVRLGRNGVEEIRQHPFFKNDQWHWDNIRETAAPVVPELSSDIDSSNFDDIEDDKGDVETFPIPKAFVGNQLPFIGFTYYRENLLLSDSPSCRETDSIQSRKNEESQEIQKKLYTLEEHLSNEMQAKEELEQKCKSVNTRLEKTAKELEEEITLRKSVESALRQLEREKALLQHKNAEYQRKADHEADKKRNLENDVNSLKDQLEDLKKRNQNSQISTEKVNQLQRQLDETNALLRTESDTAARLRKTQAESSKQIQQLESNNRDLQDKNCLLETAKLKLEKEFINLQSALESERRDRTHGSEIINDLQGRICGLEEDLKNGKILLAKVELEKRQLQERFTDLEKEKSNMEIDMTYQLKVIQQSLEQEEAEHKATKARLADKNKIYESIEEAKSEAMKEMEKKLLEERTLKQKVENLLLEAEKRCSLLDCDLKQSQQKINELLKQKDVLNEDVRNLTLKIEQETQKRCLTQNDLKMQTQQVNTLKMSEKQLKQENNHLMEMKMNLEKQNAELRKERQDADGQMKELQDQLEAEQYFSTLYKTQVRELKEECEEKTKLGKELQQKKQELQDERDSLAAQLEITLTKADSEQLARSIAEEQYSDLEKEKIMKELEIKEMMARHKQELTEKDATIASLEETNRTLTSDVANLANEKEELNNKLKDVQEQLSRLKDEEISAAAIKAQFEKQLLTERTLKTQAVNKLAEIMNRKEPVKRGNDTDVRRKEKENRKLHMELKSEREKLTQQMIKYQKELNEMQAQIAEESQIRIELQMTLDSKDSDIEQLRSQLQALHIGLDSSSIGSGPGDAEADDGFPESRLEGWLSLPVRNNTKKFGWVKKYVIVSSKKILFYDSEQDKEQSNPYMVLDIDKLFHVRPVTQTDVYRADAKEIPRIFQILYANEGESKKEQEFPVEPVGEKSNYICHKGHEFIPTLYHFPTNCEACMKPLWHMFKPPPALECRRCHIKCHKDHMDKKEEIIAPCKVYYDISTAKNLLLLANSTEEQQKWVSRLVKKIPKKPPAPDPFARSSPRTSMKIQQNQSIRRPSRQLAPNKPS
Note: in the data inactive means no Kd found up to 30 µM.

With `C[C@]1(O)C[C@@H](c2nc(-c3ccc4ccc(-c5ccccc5)nc4c3)c3c(N)nccn32)C1` [LINSITINIB] the Kd [1] was > 30 µM (inactive), the Kd [2] was 0.067 µM (active) and the Kd [3] was > 30 µM (inactive). For the same molecule, the Kd [4] was > 30 µM (inactive), the Kd [5] was > 30 µM (inactive) and the Kd [6] was > 30 µM (inactive).

For `CN(c1ncccc1CNc1nc(Nc2ccc3c(c2)CC(=O)N3)ncc1C(F)(F)F)S(C)(=O)=O` [PF-00562271], the Kd [1] was > 30 µM (inactive), the Kd [7] was 0.845 µM (active) and the Kd [3] was > 30 µM (inactive). For the same molecule, the Kd [4] was 0.626 µM (active), the Kd [5] was > 30 µM (inactive) and the Kd [6] was > 30 µM (inactive).

For `Cn1c(=O)n(-c2ccc(C(C)(C)C#N)cc2)c2c3cc(-c4cnc5ccccc5c4)ccc3ncc21` [DACTOLISIB], the Kd [1] was > 30 µM (inactive), the Kd (Insulin receptor) was > 30 µM (inactive) and the Kd [3] was > 30 µM (inactive). For the same molecule, the Kd [8] was > 30 µM (inactive), the Kd [4] was > 30 µM (inactive) and the Kd [5] was > 30 µM (inactive). For the same molecule, the Kd [6] was > 30 µM (inactive).

In the case of `CN1CCN(c2nc(C3=C(c4c[nH]c5ccccc45)C(=O)NC3=O)c3ccccc3n2)CC1` [SOTRASTAURIN], the Kd [1] is reported as > 30 µM (inactive), the Kd [7] is reported as 1.2 µM (active) and the Kd [2] is reported as > 30 µM (inactive). The Kd [3] was > 30 µM (inactive), the Kd [8] was > 30 µM (inactive) and the Kd [4] was > 30 µM (inactive). The Kd [5] was > 30 µM (inactive) and the Kd [6] was > 30 µM (inactive).

With `CCOc1ccn(-c2ccc(F)cc2)c(=O)c1C(=O)Nc1ccc(Oc2ccnc(N)c2Cl)c(F)c1` [BMS-777607] the Kd [1] was > 30 µM (inactive), the Kd [7] was > 30 µM (inactive) and the Kd [3] was > 30 µM (inactive). For the same molecule, the Kd [8] was > 30 µM (inactive), the Kd [4] was > 30 µM (inactive) and the Kd [5] was > 30 µM (inactive).

For `Cn1cnc2c(F)c(Nc3ccc(Br)cc3Cl)c(C(=O)NOCCO)cc21` [SELUMETINIB], the Kd [1] was > 30 µM (inactive), the Kd [3] was > 30 µM (inactive) and the Kd [5] was > 30 µM (inactive).

`O=S(=O)(c1cccc2cnccc12)N1CCCNCC1` [FASUDIL] was tested, and the Kd [1] was > 30 µM (inactive), the Kd [3] was > 30 µM (inactive) and the Kd [8] was 0.943 µM (active). The Kd [4] was > 30 µM (inactive), the Kd [5] was > 30 µM (inactive) and the Kd [6] was > 30 µM (inactive).

For `COc1cc2c(N3CCN(C(=O)Nc4ccc(OC(C)C)cc4)CC3)ncnc2cc1OCCCN1CCCCC1` [TANDUTINIB], the Kd [1] was > 30 µM (inactive), the Kd [3] was > 30 µM (inactive) and the Kd [5] was > 30 µM (inactive).

With `COc1cc2c(Oc3ccc4[nH]c(C)cc4c3F)ncnc2cc1OCCCN1CCCC1` [CEDIRANIB] the Kd [1] was > 30 µM (inactive), the Kd [3] was > 30 µM (inactive) and the Kd [5] was > 30 µM (inactive).

With `CC(C)CC(=O)Nc1[nH]nc2c1CN(C(=O)C1CCN(C)CC1)C2(C)C` [PHA-793887] the Kd [1] was > 30 µM (inactive), the Kd [7] was 0.029 µM (active) and the Kd [2] was > 30 µM (inactive). The Kd [3] was > 30 µM (inactive), the Kd [8] was > 30 µM (inactive) and the Kd [5] was > 30 µM (inactive). The Kd [6] was > 30 µM (inactive).

In the case of `C=CCn1c(=O)c2cnc(Nc3ccc(N4CCN(C)CC4)cc3)nc2n1-c1cccc(C(C)(C)O)n1` [ADAVOSERTIB], the Kd [1] is reported as > 30 µM (inactive), the Kd (Insulin receptor) is reported as > 30 µM (inactive) and the Kd [3] is reported as > 30 µM (inactive). The Kd [8] was > 30 µM (inactive), the Kd [4] was > 30 µM (inactive) and the Kd [5] was > 30 µM (inactive). For the same molecule, the Kd [6] was > 30 µM (inactive).

With `CC1(C)CNc2cc(NC(=O)c3cccnc3NCc3ccncc3)ccc21` [MOTESANIB] the Kd [1] was > 30 µM (inactive), the Kd [3] was > 30 µM (inactive) and the Kd [5] was > 30 µM (inactive).

With `CN(C)C/C=C/C(=O)Nc1cc2c(Nc3ccc(F)c(Cl)c3)ncnc2cc1O[C@H]1CCOC1` [AFATINIB] the Kd [1] was > 30 µM (inactive), the Kd [3] was > 30 µM (inactive) and the Kd [5] was > 30 µM (inactive).

`C[C@@]1(C(=O)Nc2ccc(F)nc2)CCCN1c1nc(Nc2cc(C3CC3)n[nH]2)c2cccn2n1` [BMS-754807] was tested, and the Kd [1] was > 30 µM (inactive), the Kd [3] was > 30 µM (inactive) and the Kd [5] was > 30 µM (inactive).

With `CCc1nc(C(N)=O)c(Nc2ccc(N3CCC(N4CCN(C)CC4)CC3)c(OC)c2)nc1NC1CCOCC1` [GILTERITINIB] the Kd [1] was 0.202 µM, the Kd [7] was > 30 µM (inactive) and the Kd [2] was 0.244 µM (active). For the same molecule, the Kd [3] was 5.48 µM, the Kd [8] was > 30 µM (inactive) and the Kd [4] was > 30 µM (inactive). For the same molecule, the Kd [5] was 2.72 µM (active) and the Kd [6] was 0.006 µM (active).

For `Cc1c(NC(=O)OC[C@@H]2COCCN2)cn2ncnc(Nc3ccc4c(cnn4Cc4cccc(F)c4)c3)c12` [AC-480], the Kd [1] was > 30 µM (inactive), the Kd [7] was > 30 µM (inactive) and the Kd (Insulin receptor) was > 30 µM (inactive). For the same molecule, the Kd [2] was > 30 µM (inactive), the Kd [3] was > 30 µM (inactive) and the Kd [8] was > 30 µM (inactive). For the same molecule, the Kd [5] was > 30 µM (inactive) and the Kd [6] was > 30 µM (inactive).

`COc1ccc(-c2ccc3ncc4c(c3c2)n(-c2ccc(N3CCNCC3)c(C(F)(F)F)c2)c(=O)n4C)cn1` [BGT-226 FREE BASE] was tested, and the Kd [1] was > 30 µM (inactive), the Kd [7] was 3.4 µM (active) and the Kd (Insulin receptor) was > 30 µM (inactive). For the same molecule, the Kd [2] was > 30 µM (inactive), the Kd [3] was > 30 µM (inactive) and the Kd [8] was > 30 µM (inactive). The Kd [5] was 1.01 µM (active) and the Kd [6] was > 30 µM (inactive).

With `CCN(CCCOc1ccc2c(Nc3cc(CC(=O)Nc4cccc(F)c4)n[nH]3)ncnc2c1)CCOP(=O)(O)O` [BARASERTIB] the Kd [1] was > 30 µM (inactive), the Kd (Insulin receptor) was > 30 µM (inactive) and the Kd [3] was > 30 µM (inactive). For the same molecule, the Kd [4] was > 30 µM (inactive), the Kd [5] was > 30 µM (inactive) and the Kd [6] was > 30 µM (inactive).

For `O=S(=O)(c1cccc2c(O)nccc12)N1CCCNCC1` [HYDROXYFASUDIL], the Kd [1] was > 30 µM (inactive), the Kd [7] was > 30 µM (inactive) and the Kd (Insulin receptor) was > 30 µM (inactive). For the same molecule, the Kd [2] was > 30 µM (inactive), the Kd [3] was > 30 µM (inactive) and the Kd [4] was > 30 µM (inactive). For the same molecule, the Kd [5] was > 30 µM (inactive) and the Kd [6] was > 30 µM (inactive).
